Read-outs that look alike come from different tables or passages of the source.
Experiments:
[1] = biological target: T1, RORγ ligand binding domain (LBD) (Homo sapiens, UniProt P51449); assay: TR-FRET Activity Assay (ligand sensing, RORγ-LBD / coactivator peptide interaction, LANCE); assay type: biochemical
T1 construct: made in house; host or cells: E. coli BL-21 (BL3), vector pDEST15
T1 sequence (P51449 269-508 limits assumed): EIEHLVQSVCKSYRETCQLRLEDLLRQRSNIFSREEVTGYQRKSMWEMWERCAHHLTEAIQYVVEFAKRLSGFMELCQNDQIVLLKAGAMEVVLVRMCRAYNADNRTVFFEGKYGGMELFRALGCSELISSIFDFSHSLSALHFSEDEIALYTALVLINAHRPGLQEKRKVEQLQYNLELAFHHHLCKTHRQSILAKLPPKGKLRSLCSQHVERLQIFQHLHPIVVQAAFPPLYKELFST

RORγ = biological target: T2, RORγ (UniProt P51449); assay: RORγ Gal4 Reporter Gene Assay in 293T cells (firefly and renilla luciferase); assay type: cell-based, human
T2 sequence (P51449 1-518): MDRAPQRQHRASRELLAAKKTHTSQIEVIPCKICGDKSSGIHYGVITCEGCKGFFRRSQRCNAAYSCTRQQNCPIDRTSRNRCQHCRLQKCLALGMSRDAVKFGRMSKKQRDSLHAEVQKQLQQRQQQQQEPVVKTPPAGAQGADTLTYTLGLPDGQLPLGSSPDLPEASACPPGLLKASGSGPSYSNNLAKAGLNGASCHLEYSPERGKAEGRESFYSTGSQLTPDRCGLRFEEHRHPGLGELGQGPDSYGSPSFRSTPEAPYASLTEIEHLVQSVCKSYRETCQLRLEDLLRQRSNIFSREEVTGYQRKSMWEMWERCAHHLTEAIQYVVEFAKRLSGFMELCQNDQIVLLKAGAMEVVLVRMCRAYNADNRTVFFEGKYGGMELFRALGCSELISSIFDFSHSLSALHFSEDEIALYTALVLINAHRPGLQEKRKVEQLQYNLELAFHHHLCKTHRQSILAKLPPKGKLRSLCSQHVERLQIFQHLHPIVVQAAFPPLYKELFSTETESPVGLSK

[2] = first value of the cell FRET/FF/REN, TR-FRET activity assay, read-out: pIC50 (FRET) (converted)
[3] = second value of the cell, Gal4 reporter gene assay in 293T cells, firefly luciferase
[4] = third value of the cell, Gal4 reporter gene assay in 293T cells, renilla normalised luciferase

Cc1c(C(=O)NC2CCOCC2)cc(-c2ccc(S(=O)(=O)NC(C)(C)C)c(C(F)(F)F)c2)n1CC1CCCCC1 [17/97]
IC50 [1, 2]: 126 nM | pIC50 (FF) (RORγ; [3]): 8.0 | pIC50 (REN) (RORγ; [4]): 8.0

Cc1c(C(=O)NCC(C)(C)NC(=O)CCO)cc(-c2cc(C(C)(C)C)c3c(c2)C2(CCO3)CC2)n1CC1CCCCC1 [17/31]
IC50 [1]: 1000 nM | pIC50 (FF) (RORγ): 6.0/7.3/7.3 | pIC50 (REN) (RORγ): 6.0/7.3/7.3

Cc1c(C(=O)NC23CCC(C(=O)O)(CC2)CC3)cc(-c2cc(C(C)(C)O)cc(C3(C)CC3)c2)n1CC1CCCCC1 [17/302]
IC50 [1, 2]: 1580 nM | pIC50 (FF) (RORγ; [3]): 7.3 | pIC50 (REN) (RORγ; [4]): 7.2

Cc1c(C(=O)NCC(C)(C)O)cc(-c2cc(C(C)N3CCOCC3)cc(C(C)(C)C)c2)n1CC1CCCCC1 (stereo not drawn) [1/109]
IC50 [1, 2]: 12600 nM | pIC50 (FF) (RORγ; [3]): < 4.7 | pIC50 (REN) (RORγ; [4]): < 4.7

COC(C)(c1cc(-c2cc(C(=O)NC3CCOCC3)c(C)n2CC2CCCCC2)cc(C(C)(C)C)c1)C(F)(F)F (stereo not drawn) [17/186]
IC50 [1, 2]: 398 nM | pIC50 (FF) (RORγ; [3]): 6.9 | pIC50 (REN) (RORγ; [4]): 7.1

Cc1c(C(=O)NCCCC(=O)O)cc(-c2cc(C(C)(C)C)cc(C(C)(C)C)c2)n1CC1CCCCC1 [1/69]
IC50 [1, 2]: 1580 nM | pIC50 (FF) (RORγ; [3]): 6.8 | pIC50 (REN) (RORγ; [4]): 6.9

Cc1c(C(=O)NCC(C)(C)O)cc(-c2cc(C(C)(C)C)cc(C(=O)NC(C)(C)C)c2Cl)n1CC1CCCCC1 [17/367]
IC50 [1, 2]: 5010 nM | pIC50 (FF) (RORγ; [3]): 6.4 | pIC50 (REN) (RORγ; [4]): 6.1

Cc1c(C(=O)N[C@H]2C[C@H](C(=O)O)C2)cc(-c2cc(Cl)cc(C3(C)CC3)c2)n1CC1CCCCC1 [17/299]
IC50 [1, 2]: 5010 nM | pIC50 (FF) (RORγ; [3]): 7.1 | pIC50 (REN) (RORγ; [4]): 7.5

Cc1c(C(=O)N2CCS(=O)(=O)CC2)cc(-c2ccc(S(=O)(=O)NC(C)(C)C)c(C(F)(F)F)c2)n1CC1CCCCC1 [17/199]
IC50 [1, 2]: 631 nM | pIC50 (FF) (RORγ; [3]): 6.6 | pIC50 (REN) (RORγ; [4]): 6.7

Cc1c(C(=O)NC2CC2)cc(-c2ccc(S(=O)(=O)NC(C)(C)C)c(C(C)(C)C)c2)n1CC1CCCCC1 [17/99]
IC50 [1, 2]: 251 nM | pIC50 (FF) (RORγ; [3]): 6.9 | pIC50 (REN) (RORγ; [4]): 7.0

Cc1c(C(=O)NC2CCS(=O)(=O)CC2)cc(-c2ccc(S(=O)(=O)NC(C)(C)C)c(C(C)(C)C)c2)n1CC1CCCCC1 [17/92]
IC50 [1]: 1000 nM | pIC50 (FF) (RORγ): 6.0/7.3/7.1 | pIC50 (REN) (RORγ): 6.0/7.3/7.1

Cc1c(C(=O)NC2CCOCC2)cc(-c2ccc(S(=O)(=O)NC(C)(C)C)c(C(F)(F)F)c2)n1CC1(C)CCCC1 [17/176]
IC50 [1, 2]: 251 nM | pIC50 (FF) (RORγ; [3]): 7.1 | pIC50 (REN) (RORγ; [4]): 7.0

Cc1c(C(=O)NCCN2CCOCC2)cc(-c2cc(C(C)(C)O)cc(C3(C)CC3)c2)n1CC1CCCCC1 [17/316]
IC50 [1, 2]: 2510 nM | pIC50 (FF) (RORγ; [3]): 6.3 | pIC50 (REN) (RORγ; [4]): 6.3

Cc1c(C(=O)NCC(C)(C)C(=O)N2CCOCC2)cc(-c2cc(C(C)(C)C)c3c(c2)C2(CCO3)CC2)n1CC1CCCCC1 [Example 11, 5(8-(tert-Butyl)spiro[chroman-4,1′-cyclopropan]-6-yl)-1-(cyclohexylmethyl)-N-(2,2-dimethyl-3-morpholino-3-oxopropyl)-2-methyl-1H-pyrrole-3-carboxamide]
IC50 [1, 2]: 251 nM | pIC50 (FF) (RORγ; [3]): 6.5 | pIC50 (REN) (RORγ; [4]): 6.5

Cc1c(C(=O)NS(C)(=O)=O)cc(-c2cc(C(C)(C)C)cc(C(C)(C)C)c2)n1CC1CCCCC1 [1/51]
IC50 [1, 2]: 2510 nM | pIC50 (FF) (RORγ; [3]): 5.9 | pIC50 (REN) (RORγ; [4]): 6.1

Cc1c(C(=O)NCC(C)(C)C(=O)NCCCO)cc(-c2cc(C(C)(C)C)c3c(c2)C2(CCO3)CC2)n1CC1CCCCC1 [11/6]
IC50 [1, 2]: 251 nM | pIC50 (FF) (RORγ; [3]): 8.0 | pIC50 (REN) (RORγ; [4]): 8.2

Cc1c(C(=O)NCCN2CCOCC2)cc(-c2ccc(S(=O)(=O)NC(C)(C)C)c3ccccc23)n1CC1CCCCC1 [17/269]
IC50 [1]: 1000 nM | pIC50 (FF) (RORγ): 6.0/6.9/7.0 | pIC50 (REN) (RORγ): 6.0/6.9/7.0

Cc1c(C(=O)NC2CCOCC2)cc(-c2ccc(S(=O)(=O)NC(C)(C)C)cc2)n1CC1CCCCC1 [17/237]
IC50 [1, 2]: 1260 nM | pIC50 (FF) (RORγ; [3]): 6.5 | pIC50 (REN) (RORγ; [4]): 6.5

Cc1c(C(=O)NCC2(C(=O)O)CCOCC2)cc(-c2cc(C(C)(C)C)c3c(c2)C2(CCO3)CC2)n1CC1CCCCC1 [17/40]
IC50 [1, 2]: 1260 nM | pIC50 (FF) (RORγ; [3]): 6.9 | pIC50 (REN) (RORγ; [4]): 6.8

Cc1c(C(=O)N[C@H]2CCOC2)cc(-c2cc(C(C)(C)C)c3c(c2)C2(CCO3)CC2)n1CC1CCCCC1 [1/95]
IC50 [1, 2]: 158 nM | pIC50 (FF) (RORγ; [3]): 7.0 | pIC50 (REN) (RORγ; [4]): 7.1

Cc1c(C(=O)NCCc2nn[nH]n2)cc(-c2ccc(S(=O)(=O)NC(C)(C)C)c(C(C)(C)C)c2)n1CC1CCCCC1 [17/334]
IC50 [1, 2]: 1260 nM | pIC50 (FF) (RORγ; [3]): 5.8 | pIC50 (REN) (RORγ; [4]): 5.9

Cc1c(C(=O)NCC2(C(N)=O)CCOCC2)cc(-c2cc(C(C)(C)O)cc(C3(C)CC3)c2)n1CC1CCCCC1 [17/318]
IC50 [1, 2]: 2000 nM | pIC50 (FF) (RORγ; [3]): 7.7 | pIC50 (REN) (RORγ; [4]): 7.6

Cc1c(C(=O)NCC2(C)COC2)cc(-c2cc(S(=O)(=O)N3CCCCC3)c3ccccn23)n1CC1CCCCC1 [Example 8, 1-(Cyclohexylmethyl)-2-methyl-N-((3-methyloxetan-3-yl)methyl)-5-(1-(piperidin-1-ylsulfonyl)indolizin-3-yl)-1H-pyrrole-3-carboxamide]
IC50 [1, 2]: 3980 nM | pIC50 (FF) (RORγ; [3]): 7.2 | pIC50 (REN) (RORγ; [4]): 7.2

Cc1c(C(=O)N[C@H]2C[C@H](C(=O)O)C2)c(Cl)c(-c2cc(C(C)(C)C)cc(C3(C)CC3)c2)n1CC1CCCCC1 [Example 29, (trans)-3-(5-(3-(tert-Butyl)-5-(1-methylcyclopropyl)phenyl)-4-chloro-1-(cyclohexylmethyl)-2-methyl-1H-pyrrole-3-carboxamido)cyclobutanecarboxylic acid]
IC50 [1, 2]: 3980 nM | pIC50 (FF) (RORγ; [3]): 7.2 | pIC50 (REN) (RORγ; [4]): 7.2

COC(=O)C(C)(C)CCNC(=O)c1cc(-c2cc(C(C)(C)C)cc(C3(C)CC3)c2)n(CC2CCCCC2)c1F [20/4]
IC50 [1, 2]: 200 nM | pIC50 (FF) (RORγ; [3]): 6.9 | pIC50 (REN) (RORγ; [4]): 6.9

Cc1c(C(=O)N[C@H]2C[C@H](C(=O)O)C2)cc(-c2cc(C(=O)NC(C)(C)C)nc(C3(C)CC3)n2)n1CC1CCCCC1 [17/372]
IC50 [1, 2]: 3160 nM | pIC50 (FF) (RORγ; [3]): 6.3 | pIC50 (REN) (RORγ; [4]): 6.2

Cc1c(C(=O)NC2CCOCC2)cc(-c2ccc(S(=O)(=O)NC3(C)COC3)c(C(F)(F)F)c2)n1CC1CCCCC1 [17/145]
IC50 [1, 2]: 631 nM | pIC50 (FF) (RORγ; [3]): 7.6 | pIC50 (REN) (RORγ; [4]): 7.7

Cc1c(C(=O)NC[C@@H](C)O)cc(-c2cc(C(C)(C)C)cc(C(C)(C)C)c2)n1CC1CCCCC1 [1/59]
IC50 [1, 2]: 631 nM | pIC50 (FF) (RORγ; [3]): 6.3 | pIC50 (REN) (RORγ; [4]): 6.3

Cc1c(C(=O)NC2CCOCC2)cc(-c2ccc(S(=O)(=O)NC(C)(C)C)c(C(F)(F)F)c2)n1CC1(O)CCCCC1 [17/255]
IC50 [1, 2]: 7940 nM | pIC50 (FF) (RORγ; [3]): < 4.7 | pIC50 (REN) (RORγ; [4]): < 4.7

Cc1c(C(=O)NC2(C)COC2)cc(-c2cc(C(C)(C)C)c3c(c2)C2(CCO3)CC2)n1CC1CCCCC1 [17/13]
IC50 [1]: 631 nM | pIC50 (FF) (RORγ): 6.2/6.8/6.9 | pIC50 (REN) (RORγ): 6.2/6.8/6.9

Cc1c(C(=O)N2CCCC(C)(C(=O)O)C2)cc(-c2ccc(S(=O)(=O)NC(C)(C)C)c(C(F)(F)F)c2)n1CC1CCCCC1 (stereo not drawn) [17/225]
IC50 [1, 2]: 794 nM | pIC50 (FF) (RORγ; [3]): 7.6 | pIC50 (REN) (RORγ; [4]): 7.6

Cc1c(C(=O)NC2COC2)cc(-c2cn(S(=O)(=O)N3CCCCC3)c3ccccc23)n1CC1CCCCC1 [9/1]
IC50 [1, 2]: 501 nM | pIC50 (FF) (RORγ; [3]): 7.5 | pIC50 (REN) (RORγ; [4]): 7.5
